Measured values: patent US20250327027A1, “METHODS TO GENERATE ENHANCED TUMOR INFILTRATING LYMPHOCYTES THROUGH MICROFLUIDIC DELIVERY” (STEMCELL TECHNOLOGIES CANADA INC., priority 2021, published 2025)
“And” between values parts separate entries of the source, which are not always exact repeats. Equal values may be shown once.

Legend:
Assay type in all cases: cell-based
melanoma TILs = experiment: Comparison of microfluidic chips and anti-CD3 antibody clones used in REP (mbIL-2/mbIL-12 expression); conditions: anti-CD3 clone used in REP culture; 4 hours post squeeze
Excerpt: As described herein, TILs are often expanded to increase their number prior to their use in adoptive transfer studies Such expansion phase can involve the use of anti-CD3 antibodies to activate and induce the TILs to proliferate. Whether the specific anti-CD3 antibody clone used in the expansion phase was next assessed. Briefly, melanoma TILs were collected from REP cultures that contained different anti-CD3 clones (OKT3, SK7, HIT3a, or UCHT1). Following cell harvest, the post-REP TILs were resuspended at 40 million live cells/mL cell density as 2× concentration. The cells were mixed with equal volume of 2× mRNA solution and squeezed through various chip types (10-3.5-70 SF, 10-4-70 ST) and pressure (30 psi) at room temperature. Final concentration of cells was 20 million live cells/mL. Final mRNA concentration for squeeze was […] for each of mbIL-2 and mbIL-12 mRNA. Following the squeeze processing, cells were quenched in CTS OpTmizer media and spun immediately. […] The squeezed TILs were assessed at 4 hours post squeeze by flow cytometry for viability, cell composition, and surface levels of mbIL-2 and mbIL-12.

TILs = experiment: Effect of anti-CD3 antibody on TIL expansion from melanoma tumor fragments (NucleoCounter NC-200); conditions: for Cell Count on Day 13 / Viability on Day 13: 6,000 IU/mL recombinant IL-2, replicate wells
Description: Further to the data provided in Example 22, the effect of anti-CD3 antibody on TIL expansion was further assessed. Briefly, freshly resected melanoma tumor was rinsed in 1× Hank's Balanced Salt Solution (HBSS) with 10 μg/mL gentamicin and dissected into 8-27 mm^3 fragments using a forceps and scalpel. […] Five tumor fragments, 8-27 mm^3 in size, per well were added to the G-Rex6M plate. The G-Rex6M plate was then placed in a 37° C., 5% CO2 incubator for 4 days.
On day 4, the G-Rex6M plate was removed from the incubator. […] The G-Rex6M plate was returned to the 37° C., 5% CO2 incubator for an additional 9 days.
On day 13, the TILs were harvested and transferred to a 50 mL conical tube. The number and viability of the TILs was assessed using a NucleoCounter NC-200.

lung TILs = experiment: Comparison of anti-CD3 antibody concentration in pre-REP (mbIL-2/mbIL-12 and CD62L expression); conditions: 6 or 30 ng/mL anti-CD3 antibody (OKT3 clone) during pre-REP
Description: As described herein, in some aspects, prior to modifying the TILs, the TILs can undergo a first expansion phase (pre-REP) and a second expansion phase (REP). Whether the concentration of the anti-CD3 antibody during the first expansion phase has an effect in producing the modified TILs described herein, the following methods were used. Briefly, lung TILs underwent a pre-REP process in the absence or presence of 6 or 30 ng/mL anti-CD3 antibody (OKT3 clone). Then, the TILs were collected and further expanded in a REP process. Afterwards, the cells were resuspended at 40 million live cells/mL cell density as 2× concentration. The cells were mixed with equal volume of 2× mRNA solution and squeezed through 10-4-70 ST at 60 psi at room temperature. Final concentration of cells was 20 million live cells/mL. Final mRNA concentration for squeeze was […] for each of mbIL-2 and mbIL-12 mRNA. Following squeezing, cells were quenched in CTS OpTmizer media and spun immediately. […] The squeezed TILs were assessed at 4, 24, and 48 hours post squeeze by flow cytometry for viability, cell composition, surface levels of mbIL-2 and mbIL-12.

OKT3: anti-CD3 antibody clone used in TIL expansion
mbIL-2 and mbIL-12 expression (percentage of total cells and MFI) (melanoma TILs): higher expression
Cell Count on Day 13 (TILs; 6 ng/mL OKT3): 2.35 × 10^8 and 2.43 × 10^8
Viability on Day 13 (TILs; 6 ng/mL OKT3): 90.7% and 91.1%
Cell Count on Day 13 (TILs; 20 ng/mL OKT3): 2.00 × 10^8 and 2.17 × 10^8
Viability on Day 13 (TILs; 20 ng/mL OKT3): 90.5% and 91.6%
TIL expansion (TILs; 6 or 30 ng/mL of OKT3, day 13, compared to culture without OKT3): greater TIL expansion
impact on translation kinetics of mbIL-2 and mbIL-12 expression (lung TILs): minimal impact
